Measured values: the supplement of paper PMC10307832

Key:
Assay in all cases: relative viability (nuclei count vs DMSO), 5 days (fraction); higher = more cells survive
[1] = compound: Cc1ccc(NC(=O)c2ccc(CN3CCN(C)CC3)cc2)cc1Nc1nc(-c2cccnc2)cs1 [Masitinib] + CS(=O)(=O)N1CCN(Cc2cc3nc(-c4cccc5[nH]ncc45)nc(N4CCOCC4)c3s2)CC1 [Pictilisib] (partner 1 µM)
Outline: (§1)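 Lung cancer cell lines in 1536-well plates were dosed by pin tool the day after seeding, either with one drug alone or with a fixed anchor-drug dose plus five library-drug doses (not always all listed) in √10 steps. After 5 days, cells were fixed and their nuclei stained in one step (final 0.05% Triton X-100, 1% formaldehyde, 1 ug/ml Hoechst), then counted on 4× images. Relative viability is the nuclei count in treated wells divided by that in vehicle wells. Values are medians of duplicate plates.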

[2] = compound: Cc1ccc(NC(=O)c2ccc(CN3CCN(C)CC3)cc2)cc1Nc1nc(-c2cccnc2)cs1 [Masitinib] + COc1cc2c(Oc3ccc(NC(=O)C4(C(=O)Nc5ccc(F)cc5)CC4)cc3F)ccnc2cc1OCCCN1CCOCC1 [Foretinib] (partner 0.25 µM)
Outline: as §1

[3] = compound: CC1=CC(=CC=C1)NC2=NC(=CS2)C3=CC=NC=C3
Outline: (§2)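 Acceptance criteria were a control CV below 25% and at least one doubling per plate. Lung cancer cell lines in 1536-well plates got five library-drug doses (not always all listed) √10 apart by pinning and were left 5 days with no medium change. Viability divides treated-well nuclei by vehicle-well nuclei and is the median across plates. Nuclei were counted by MetaXpress from 4× Hoechst images.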

[4] = compound: Cc1ccc(NC(=O)c2ccc(CN3CCN(C)CC3)cc2)cc1Nc1nc(-c2cccnc2)cs1 [Masitinib]
Outline: as §2

UMC-11 was tested, and the relative viability ([1]; first compound 0.01 µM) was 0.744, the relative viability ([1]; first compound 0.03162 µM) was 0.862 and the relative viability ([1]; first compound 0.1 µM) was 0.948. For the same cell line, the relative viability ([1]; first compound 0.3162 µM) was 0.972, the relative viability ([1]; first compound 1 µM) was 0.856 and the relative viability ([2]; first compound 0.03162 µM) was 0.951. The relative viability ([2]; first compound 0.1 µM) was 1.12, the relative viability ([2]; first compound 0.3162 µM) was 1.17 and the relative viability ([2]; first compound 1 µM) was 1.15. It also gave a relative viability ([3]; 0.08 µM) of 0.872, a relative viability ([3]; 0.253 µM) of 0.927 and a relative viability ([3]; 0.8 µM) of 0.927. It also gave a relative viability ([3]; 2.53 µM) of 0.93, a relative viability ([3]; 8 µM) of 1.03 and a relative viability ([4]; 0.01 µM) of 0.926. It also gave a relative viability ([4]; 0.03162 µM) of 0.969, a relative viability ([4]; 0.1 µM) of 1.09 and a relative viability ([4]; 0.3162 µM) of 0.961. For the same cell line, the relative viability ([4]; 1 µM) was 1.06.
